Data: PubChem BioAssay (NCI)
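Briefly, cells in 96-well plates were exposed to five compound concentrations for 48 h, and endpoints were estimated by linear interpolation. TGI denotes the concentration required for complete inhibition of growth.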

What was measured:
Assay in all cases: NCI-60 cell line screen, 48 h
HT29 colon = system: HT29 colon
HOP-62 NSCLC = system: HOP-62 NSCLC
HCT-116 colon = system: HCT-116 colon
NCI-H23 lung = system: NCI-H23 lung
MDA-MB-435 = system: MDA-MB-435
SR leukemia = system: SR leukemia
CAKI-1 renal = system: CAKI-1 renal
SNB-75 CNS = system: SNB-75 CNS
SN12C renal = system: SN12C renal
T-47D breast = system: T-47D breast
UACC-62 melanoma = system: UACC-62 melanoma
SK-MEL-2 melanoma = system: SK-MEL-2 melanoma
K-562 leukemia = system: K-562 leukemia
SF-295 CNS = system: SF-295 CNS
NCI-H460 lung = system: NCI-H460 lung
SNB-19 CNS = system: SNB-19 CNS
A498 renal = system: A498 renal
MDA-N = system: MDA-N
ACHN renal = system: ACHN renal
OVCAR-5 ovarian = system: OVCAR-5 ovarian
786-0 renal = system: 786-0 renal
SK-OV-3 ovarian = system: SK-OV-3 ovarian
SF-539 CNS = system: SF-539 CNS
SF-268 CNS = system: SF-268 CNS
MDA-MB-231 breast = system: MDA-MB-231 breast
MALME-3M melanoma = system: MALME-3M melanoma
A549 NSCLC = system: A549 NSCLC
SW-620 colon = system: SW-620 colon
KM12 colon = system: KM12 colon
BT-549 breast = system: BT-549 breast
UACC-257 melanoma = system: UACC-257 melanoma
CCRF-CEM leukemia = system: CCRF-CEM leukemia
U251 CNS = system: U251 CNS
OVCAR-3 ovarian = system: OVCAR-3 ovarian
HCT-15 colon = system: HCT-15 colon
M14 melanoma = system: M14 melanoma
PC-3 prostate = system: PC-3 prostate
HCC-2998 colon = system: HCC-2998 colon
MCF7 breast = system: MCF7 breast
NCI-H226 lung = system: NCI-H226 lung
MOLT-4 leukemia = system: MOLT-4 leukemia
HL-60(TB) leukemia = system: HL-60(TB) leukemia
OVCAR-8 ovarian = system: OVCAR-8 ovarian
SK-MEL-5 melanoma = system: SK-MEL-5 melanoma
UO-31 renal = system: UO-31 renal
COLO 205 colon = system: COLO 205 colon
NCI/ADR-RES ovarian = system: NCI/ADR-RES ovarian
IGROV1 ovarian = system: IGROV1 ovarian
NCI-H522 lung = system: NCI-H522 lung
HS 578T breast = system: HS 578T breast
RXF 393 renal = system: RXF 393 renal
SK-MEL-28 melanoma = system: SK-MEL-28 melanoma
HOP-92 NSCLC = system: HOP-92 NSCLC
EKVX NSCLC = system: EKVX NSCLC
TK-10 renal = system: TK-10 renal
DU-145 prostate = system: DU-145 prostate
OVCAR-4 ovarian = system: OVCAR-4 ovarian
RPMI-8226 leukemia = system: RPMI-8226 leukemia
LOX IMVI melanoma = system: LOX IMVI melanoma

Measured: TGI

Cc1ncc([N+](=O)[O-])n1CCNC(=O)CCCCn1ccnc1[N+](=O)[O-]
> 100 µM: HT29 colon | HOP-62 NSCLC | HCT-116 colon | NCI-H23 lung | MDA-MB-435 | SR leukemia | CAKI-1 renal | SNB-75 CNS | SN12C renal | T-47D breast | UACC-62 melanoma | SK-MEL-2 melanoma | K-562 leukemia | SF-295 CNS | NCI-H460 lung | SNB-19 CNS | A498 renal | MDA-N | ACHN renal | OVCAR-5 ovarian | 786-0 renal | SK-OV-3 ovarian | SF-539 CNS | SF-268 CNS | MDA-MB-231 breast | MALME-3M melanoma | A549 NSCLC | SW-620 colon | KM12 colon | BT-549 breast | UACC-257 melanoma | CCRF-CEM leukemia | U251 CNS | OVCAR-3 ovarian | HCT-15 colon | M14 melanoma | PC-3 prostate | HCC-2998 colon | MCF7 breast | NCI-H226 lung | MOLT-4 leukemia | HL-60(TB) leukemia | OVCAR-8 ovarian | SK-MEL-5 melanoma | UO-31 renal | COLO 205 colon | NCI/ADR-RES ovarian | IGROV1 ovarian | NCI-H522 lung | HS 578T breast

COC(=O)C1=C(C)N2[C@H](C(=O)O)CS[C@@]2(C)[C@H](C(=O)OC)[C@H]1c1cccc([N+](=O)[O-])c1
> 100 µM: HT29 colon | HOP-62 NSCLC | HCT-116 colon | NCI-H23 lung | MDA-MB-435 | SR leukemia | RXF 393 renal | CAKI-1 renal | SNB-75 CNS | SN12C renal | T-47D breast | UACC-62 melanoma | SK-MEL-28 melanoma | SK-MEL-2 melanoma | K-562 leukemia | SF-295 CNS | NCI-H460 lung | SNB-19 CNS | A498 renal | MDA-N | ACHN renal | OVCAR-5 ovarian | HOP-92 NSCLC | 786-0 renal | SK-OV-3 ovarian | SF-539 CNS | SF-268 CNS | MDA-MB-231 breast | MALME-3M melanoma | A549 NSCLC | SW-620 colon | KM12 colon | BT-549 breast | UACC-257 melanoma | EKVX NSCLC | TK-10 renal | CCRF-CEM leukemia | U251 CNS | OVCAR-3 ovarian | HCT-15 colon | M14 melanoma | PC-3 prostate | HCC-2998 colon | MCF7 breast | NCI-H226 lung | DU-145 prostate | MOLT-4 leukemia | OVCAR-4 ovarian | OVCAR-8 ovarian | SK-MEL-5 melanoma | UO-31 renal | RPMI-8226 leukemia | COLO 205 colon | NCI/ADR-RES ovarian | IGROV1 ovarian | NCI-H522 lung | HS 578T breast

CCOC1NC(=O)c2ccccc21 (stereo not drawn)
> 100 µM: HT29 colon | HOP-62 NSCLC | HCT-116 colon | NCI-H23 lung | MDA-MB-435 | SR leukemia | RXF 393 renal | SNB-75 CNS | SN12C renal | T-47D breast | UACC-62 melanoma | SK-MEL-28 melanoma | K-562 leukemia | SF-295 CNS | NCI-H460 lung | SNB-19 CNS | MDA-N | ACHN renal | OVCAR-5 ovarian | HOP-92 NSCLC | 786-0 renal | SK-OV-3 ovarian | SF-539 CNS | SF-268 CNS | MDA-MB-231 breast | MALME-3M melanoma | A549 NSCLC | SW-620 colon | KM12 colon | BT-549 breast | UACC-257 melanoma | EKVX NSCLC | TK-10 renal | CCRF-CEM leukemia | U251 CNS | OVCAR-3 ovarian | HCT-15 colon | M14 melanoma | PC-3 prostate | HCC-2998 colon | MCF7 breast | NCI-H226 lung | DU-145 prostate | MOLT-4 leukemia | OVCAR-4 ovarian | HL-60(TB) leukemia | OVCAR-8 ovarian | SK-MEL-5 melanoma | UO-31 renal | RPMI-8226 leukemia | LOX IMVI melanoma | COLO 205 colon | NCI/ADR-RES ovarian | IGROV1 ovarian | NCI-H522 lung | HS 578T breast
